# Molecular target: T1, TmPPase (Thermotoga maritima, UniProt Q9S5X0)
# T1 construct: gene hppA; N-terminally His6-tagged, plasmid pRS1024, expressed in Saccharomyces cerevisiae BJ1991, OGNPG-solubilised, homodimer
# T1 sequence (Q9S5X0 1-726 limits assumed): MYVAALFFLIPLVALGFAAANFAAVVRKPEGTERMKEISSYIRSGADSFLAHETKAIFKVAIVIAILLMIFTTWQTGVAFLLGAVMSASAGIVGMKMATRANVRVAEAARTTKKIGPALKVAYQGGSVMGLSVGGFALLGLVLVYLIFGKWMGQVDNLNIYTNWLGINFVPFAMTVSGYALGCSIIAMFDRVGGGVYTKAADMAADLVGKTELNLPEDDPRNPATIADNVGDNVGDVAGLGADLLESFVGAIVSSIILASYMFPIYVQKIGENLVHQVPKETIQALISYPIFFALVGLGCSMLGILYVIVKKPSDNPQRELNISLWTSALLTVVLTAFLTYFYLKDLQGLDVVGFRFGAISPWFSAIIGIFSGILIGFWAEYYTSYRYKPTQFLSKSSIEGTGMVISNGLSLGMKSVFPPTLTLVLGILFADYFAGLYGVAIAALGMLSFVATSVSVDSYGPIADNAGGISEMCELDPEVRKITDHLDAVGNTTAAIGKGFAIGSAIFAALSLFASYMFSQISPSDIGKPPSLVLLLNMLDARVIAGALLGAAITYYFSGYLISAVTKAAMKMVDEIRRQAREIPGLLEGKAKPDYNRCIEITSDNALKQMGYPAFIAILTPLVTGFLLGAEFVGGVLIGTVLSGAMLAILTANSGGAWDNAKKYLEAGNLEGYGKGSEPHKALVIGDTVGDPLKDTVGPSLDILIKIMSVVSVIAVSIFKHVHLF
# Experiment: X-ray crystallography, […] Å
# Assay type: binding
# Settings: active site, as Mg5IDP complex; Na+ bound at ion gate; pH 8.5 well solution; non-hydrolysable substrate analogue
structure (smiles),measurement,value
"O=P(O)(O)NP(=O)(O)O [IDP, imidodiphosphate]","X-ray crystallography, 3.5 Å","In TmPPase:IDP, an Mg5IDP-complex was fit into the positive Fo–Fc density in the hydrolytic centre"

# — paper PMC5150537 (Nature Communications, 2016)
